Among the test systems are KM12 colon; HL-60(TB) leukemia; CAKI-1 renal; SNB-75 CNS; 786-0 renal; SR leukemia; ACHN renal; EKVX NSCLC; U251 CNS.
What all share (assay): NCI anticancer screen, dose series, 48 h

The source of these data is PubChem BioAssay (NCI).

Each structure is given as a SMILES string.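 Values below derive from 48-hour exposures of cells grown in 96-well plates, with endpoints linearly interpolated between the two concentrations bracketing the appropriate inhibition level. Abbreviation: GI50, concentration required for 50% inhibition of growth. TGI: total growth inhibition.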 Bounds are passed on as bounds.

For the compound `CCOc1ccc2c(c1)[n+]([O-])c(-c1ccc(Cl)cc1)c(N)[n+]2[O-]`, the TGI with KM12 colon, in the assay on HL-60(TB) leukemia, in the assay with CAKI-1 renal, in the assay on SNB-75 CNS, in the assay with 786-0 renal and in the assay with SR leukemia was more than 100 µM throughout. Further, the TGI in the assay on ACHN renal, in the assay with EKVX NSCLC and in the assay with U251 CNS was more than 100 µM throughout.
For `Fc1ccc2c(c1)C1=NN(c3ccccc3)C(F)C1CO2` (centres undefined), the GI50 in the assay with KM12 colon was 16.1 µM; in the assay on HL-60(TB) leukemia, 17.9 µM; with CAKI-1 renal it was 6.41 µM; in the assay with SNB-75 CNS, 9.01 µM; in the assay with 786-0 renal, 12.8 µM; with SR leukemia, 25.7 µM. For the same compound, the GI50 is 8.94 µM in the assay with ACHN renal, 5.64 µM in the assay with EKVX NSCLC and 7.29 µM with U251 CNS. For the same compound, the TGI is 45.6 µM in the assay on KM12 colon; more than 50 µM in the assay on HL-60(TB) leukemia; 20.2 µM in the assay on CAKI-1 renal; 32 µM in the assay on SNB-75 CNS; more than 50 µM with 786-0 renal; more than 50 µM in the assay on SR leukemia. The TGI came to 22.7 µM with ACHN renal, 16.4 µM in the assay with EKVX NSCLC and 15.3 µM with U251 CNS.
With `COC(=O)/C(C)=C(/CCC1(C)OCCO1)O[Si](C)(C)C`, the TGI with KM12 colon was more than 100 µM; in the assay with HL-60(TB) leukemia it was more than 100 µM; with CAKI-1 renal it was more than 100 µM; in the assay with SNB-75 CNS it was 71.7 µM; with 786-0 renal, more than 100 µM; in the assay with ACHN renal, more than 100 µM. The TGI in the assay on EKVX NSCLC and in the assay with U251 CNS was more than 100 µM each time.
As for `c1ccc2c(c1)cc(C1NCCc3[nH]cnc31)c1ccccc12` (centres undefined), the TGI is more than 100 µM with KM12 colon; more than 100 µM in the assay on HL-60(TB) leukemia; more than 100 µM in the assay with CAKI-1 renal; more than 100 µM in the assay with SNB-75 CNS; more than 60.8 µM in the assay with 786-0 renal; 61.1 µM in the assay on SR leukemia. Further, the values for the TGI with ACHN renal, in the assay on EKVX NSCLC and in the assay on U251 CNS were more than 61.9 µM, more than 100 µM and more than 57.7 µM, respectively.
As to `COc1cnc2c(c1)C(=O)c1c-2n(CCCn2ccnc2)c(=O)c2cc(F)ccc12`, the GI50 was 0.0589 µM in the assay on KM12 colon; 0.0363 µM in the assay on HL-60(TB) leukemia; 0.187 µM in the assay on SNB-75 CNS; 0.0131 µM in the assay with 786-0 renal; less than 0.01 µM in the assay with SR leukemia; 0.167 µM in the assay on EKVX NSCLC. Further, in the assay on U251 CNS, the GI50 was less than 0.01 µM. Further, the TGI is 1.57 µM in the assay with KM12 colon; 0.311 µM in the assay with HL-60(TB) leukemia; 21.8 µM in the assay on SNB-75 CNS; 0.0563 µM in the assay with 786-0 renal; 0.76 µM with SR leukemia; more than 100 µM in the assay on EKVX NSCLC. The same compound yielded a TGI in the assay with U251 CNS of 0.179 µM.
`Cc1cc(=O)n(-c2ccccc2C)c(C)n1`: the TGI in the assay with KM12 colon, in the assay with HL-60(TB) leukemia, in the assay with CAKI-1 renal, in the assay with SNB-75 CNS, in the assay with 786-0 renal and in the assay on ACHN renal was more than 100 µM in each case. The TGI in the assay with EKVX NSCLC and in the assay on U251 CNS was more than 100 µM each time.
As to `Cc1ccc2nc(NC(=O)C(=O)C(C#N)c3nc4ccccc4s3)sc2c1` (centres undefined), the TGI in the assay with KM12 colon was more than 100 µM; in the assay on CAKI-1 renal, 94.3 µM; in the assay on SNB-75 CNS, more than 100 µM; in the assay with 786-0 renal, more than 100 µM; in the assay on ACHN renal, more than 100 µM; in the assay on EKVX NSCLC, more than 100 µM. In the assay with U251 CNS, this compound gave a TGI of more than 100 µM.
In the case of `CCOC(=O)NC(=O)c1cn(CCOC(=O)CCCCCCCCC(=O)OCCn2cc(C(=O)NC(=O)OCC)c(=O)[nH]c2=O)c(=O)[nH]c1=O`, the TGI in the assay on KM12 colon, in the assay with HL-60(TB) leukemia, with CAKI-1 renal, in the assay on SNB-75 CNS, in the assay with 786-0 renal and with SR leukemia was more than 100 µM in each case. Besides, the TGI in the assay with ACHN renal and in the assay on EKVX NSCLC was more than 100 µM in each case.
As to `CCc1cc(C(=O)OC)cn1C(=N)c1ccc(Cl)cc1`, the TGI in the assay on KM12 colon, in the assay with HL-60(TB) leukemia, in the assay with CAKI-1 renal, in the assay with SNB-75 CNS, in the assay on 786-0 renal and in the assay on ACHN renal was more than 100 µM each time. Further, the TGI in the assay on EKVX NSCLC and in the assay on U251 CNS was more than 100 µM each time.
Regarding `O=C(O)C(SC(=S)c1ccc(C(=S)SC(C(=O)O)c2ccccc2)cc1)c1ccccc1` (centres undefined), the TGI with KM12 colon, in the assay on HL-60(TB) leukemia, with SNB-75 CNS, with 786-0 renal, in the assay with SR leukemia and in the assay on ACHN renal was more than 100 µM in each case. In the assay with U251 CNS, the TGI was more than 100 µM.
As for `Oc1c(C(Nc2cccc3cccnc23)c2ccccc2)ccc2cccnc12` (centres undefined), the TGI in the assay with KM12 colon is more than 100 µM; in the assay on HL-60(TB) leukemia it was 7.58 µM; in the assay with CAKI-1 renal, more than 100 µM; in the assay on 786-0 renal it was more than 100 µM; in the assay with SR leukemia, 10.4 µM; with ACHN renal it was more than 100 µM. In the assay with EKVX NSCLC, this compound displayed a TGI of more than 100 µM.
As to `COc1ccc(-c2c[nH]c(C(=O)O)c2-c2cc(OC)c(OC)c(OC)c2)cc1`, the GI50 is 4.59 µM with KM12 colon; 3.06 µM in the assay on HL-60(TB) leukemia; 3.66 µM with CAKI-1 renal; 6.63 µM with 786-0 renal; 2.92 µM in the assay on SR leukemia; 9.74 µM in the assay with ACHN renal. In addition, the figures for the GI50 in the assay with EKVX NSCLC and with U251 CNS were 5.86 µM and 4.99 µM, respectively. For the same compound, the TGI in the assay with KM12 colon was more than 100 µM; with HL-60(TB) leukemia, 9.59 µM; in the assay with CAKI-1 renal, more than 100 µM; in the assay on 786-0 renal, more than 100 µM; in the assay with SR leukemia, more than 100 µM; in the assay on ACHN renal, more than 100 µM. Moreover, the TGI in the assay on EKVX NSCLC and in the assay with U251 CNS was more than 100 µM throughout.
In the case of `COC1CC(OS(=O)(=O)c2ccc([N+](=O)[O-])cc2)C(OC(=O)c2ccccc2)C(C)O1` (centres undefined), the TGI in the assay with KM12 colon, in the assay on HL-60(TB) leukemia, in the assay on CAKI-1 renal, in the assay with 786-0 renal, in the assay with SR leukemia and in the assay with ACHN renal was more than 100 µM each time. Moreover, the TGI in the assay on U251 CNS was more than 100 µM.
On to `COc1ccc2n[se]nc2c1`, for which the TGI in the assay with KM12 colon, in the assay on HL-60(TB) leukemia, in the assay with CAKI-1 renal, in the assay on SNB-75 CNS, in the assay with 786-0 renal and in the assay with ACHN renal was more than 100 µM throughout. The TGI in the assay with EKVX NSCLC and in the assay with U251 CNS was more than 100 µM each time.
